Experimental findings from US10060892B2, “Tripodal nitrate receptor” (University of Oregon, priority 2013, dated 2018) are described below.

Assay [1] can be described thus: 1H NMR titration with TBA iodide in 10% DMSO-d6/CDCl3. Format: binding. As to conditions: I^− (TBA salt), 10% DMSO-d6/CDCl3, 1 mM receptor, 1:1 model. The source says:
(§1) To simplify the mode of binding in these receptors, as well as to lower the association constant of nitrate and bromide to a measurable amount, other solvent systems were investigated. Low solubility of the tripodal receptors limited the solvent possibilities. We also aimed to maintain competition between binding of the anion and solvent molecules to provide further evidence for the strong binding of nitrate in competitive solvents, a critical feature for applications in environmental monitoring. […] In addition, DMSO is a strong hydrogen bond acceptor, thus a lower association constant would be expected. Initial upfield shifts, followed by downfield shifts of the urea protons were observed upon the addition of TBANO3 1 mM solutions of 1 in 2% DMSO-d6/CDCl3 and 5% DMSO-d6/CDCl3. The titration curves indicate a more complicated system than a 1:1 model; however, the data still could not be fit to a standard model. […]
(§2) Titrations in 10% DMSO-d6/CDCl3 were performed at a constant 1 mM concentration of 1. The change in chemical shift was monitored throughout the titration and fit to a 1:1 model using linear regression analysis. […] The binding constants of each anion investigated and the calculated total Δδ values based on the determined constant are presented in Table 2. […]

Assay [2] is described as follows: 1H NMR titration with TBA chloride in acetone-d6. The format is binding. As to conditions: Cl^− (TBA salt), acetone-d6, 0.5 mM receptor. Here is the method: (§3) Interaction of 1 with anions in solution was investigated by 1H NMR spectroscopy. Initial titration experiments were performed at 0.5 mM of 1 in acetone-d6 due to its limited solubility in other solvents, despite the potential solvent competition as a hydrogen bond acceptor. […] Changes in chemical shifts of H^c and H^d were also observed, but to a lesser extent, with H^d moving upfield. Large downfield shifts of the urea protons indicate hydrogen bonds of the ureas to the anion as the main mode of binding. Change in chemical shift corresponding to the addition of NO3^− or Br^− begins to maximize at approximately 0.5 equiv. of guest, indicating a possible 2:1 binding model in acetone.

The nature of assay [3]: 1H NMR titration with TBA bromide in acetone-d6. As to conditions: Br^−, acetone-d6, 0.5 mM receptor; lower limit inferred from sharp binding curve, no reproducible fit. As to the method:
as §3

Assay [4] is described as follows: 1H NMR titration with TBA nitrate in 10% DMSO-d6/CDCl3. The format is binding. As to conditions: 10% DMSO-d6/CDCl3, from Ka values.
Text: as §1, with “DMSO-d6/CDCl3.” for “DMSO-d6/CDCl3. The titration curves indicate a more complicated system than a 1:1 model; however, the data still could not be fit to a standard model.”
as §2
Similar to 1, host:guest complexes of 2 were investigated through 1H NMR spectroscopy titrations in 10% DMSO-d6/CDCl3. […] The urea protons (H^a and H^b), nitrophenyl protons (H^c and H^d), and core proton (H^core) were monitored throughout the titrations. […]

Assay [5] in a line: 1H NMR titration with TBA bromide in 10% DMSO-d6/CDCl3. As to conditions: Br^− (TBA salt), 10% DMSO-d6/CDCl3, 1 mM receptor, 1:1 model. The format is binding.
Text: as §1, §2

As to `CC(C)(C)c1ccc(NC(=O)Nc2ccc([N+](=O)[O-])cc2)c(C#Cc2c(F)c(C#Cc3cc(C(C)(C)C)ccc3NC(=O)Nc3ccc([N+](=O)[O-])cc3)c(F)c(C#Cc3cc(C(C)(C)C)ccc3NC(=O)Nc3ccc([N+](=O)[O-])cc3)c2F)c1` [compound 1], the “Association constant Ka” value in assay [1] was 755 (85) M^−1; in assay [5], 8320 (876) M^−1. Besides, the “1:1 binding constant” value in assay [2] is 8620 ± 1170 M⁻¹. Also, in assay [3], the Ka is above 104 M⁻¹. Further, the “selectivity for nitrate over chloride” value in assay [4] was “moderate selectivity for nitrate”.
`CC(C)(C)c1ccc(NC(=O)Nc2ccc([N+](=O)[O-])cc2)c(C#Cc2cc(C#Cc3cc(C(C)(C)C)ccc3NC(=O)Nc3ccc([N+](=O)[O-])cc3)cc(C#Cc3cc(C(C)(C)C)ccc3NC(=O)Nc3ccc([N+](=O)[O-])cc3)c2)c1` [compound 2]: the “selectivity for nitrate over chloride” value in assay [4] is “loss in selectivity for NO3^− over Cl^−”.
